Measured values reported in US20230287044A1, “NOVEL ANTIBACTERIAL PEPTIDE AND USE THEREOF” (priority 2020, published 2023).
≈ marks a conversion by molar mass, not a printed value. Read-outs that look alike come from different tables or passages of the source. Square brackets hold non-standard residues; d marks the D form. Ends that are not written are not given here. Peptide text beside a SMILES is read from it. * marks the point of attachment. Decanoyl = CCCCCCCCCC(=O)*

Columns and labels:
[1] = tested on: VRE (E. faecalis) ATCC 51575; format: cell-based, Enterococcus faecalis
Experimental: (§1) The minimum growth inhibitory concentrations of the antibacterial peptides of the present invention weremeasured, and the results are shown in Table 3 below.
(§2) Specifically, the strains were grown in CAMHB until the midlog phase, and then diluted with PBS buffer to 1× 10^6 cfu/ml to prepare the bacterial solution, and the antibacterial peptide prepared in Example 1above was diluted with CAMHB to 80 µM, 40 µM, 20 µM, 10 µM, 5 µM, 2.5 µM, 1.25 µM and 0.63 µM, and then the bacterial solution was treated with the same volume.
(§3) The results are the average value of three independent experiments.

[2] = tested on: MRSA (S. aureus) KCCM 40510; format: cell-based, Staphylococcus aureus
Experimental: as §1, §2, §3

[3] = tested on: MRAB (A. baumannii) ATCC BAA 1605; format: cell-based, Acinetobacter baumannii
Experimental: as §1, §2, §3

[4] = tested on: MRPA (P. aeruginosa) CCARM 2180; format: cell-based, Pseudomonas aeruginosa
Experimental: as §1, §2, §3

[5] = CAMHB, 37° C., 18 hours, average of three experiments

Compound | MIC VRE (E. faecalis) ATCC 51575 ([1]; ATCC 51575, 18 h) [µM] | MIC MRSA (S. aureus) KCCM 40510 ([2]; KCCM 40510, 18 h) [µM] | MIC MRAB (A. baumannii) ATCC BAA 1605 ([3]; ATCC BAA 1605, 18 h) [µM] | MIC MRPA (P. aeruginosa) CCARM 2180 ([4]; CCARM 2180, 18 h) [µM] | also measured
CCCCCCCCCC(=O)NCCCC[C@@H](NC(=O)[C@@H](CCCCN)NC(=O)[C@@H](CCCNC(=N)N)NC(=O)[C@@H](CC(C)C)NC(=O)[C@@H](C)NC(=O)[C@H](NC(=O)[C@@H](Cc1c[nH]c2ccccc12)NC(=O)[C@@H](CC(C)C)NC(=O)[C@@H](CC(C)C)NC(=O)[C@H](N)Cc1c[nH]c2ccccc12)[C@H](C)CC)C(N)=O [KSH7, wllwialrkk] (H-[dW][dL][dL][dW][dI][dA][dL][dR][dK][dK](Decanoyl)-NH2; N-terminus assumed) | 10 (≈ 14.8 µg/mL) | 10 (≈ 14.8 µg/mL) | >40 | >40 | 
WLLWIALRKKR-NH2 [KSH1] |  |  |  | 40 | MIC VRE (E. faecalis) ATCC 51575 [1, 5]: 5 µM; MIC MRSA (S. aureus) KCCM 40510 [2, 5]: 2.5 µM; MIC MRAB (A. baumannii) ATCC BAA 1605 [3, 5]: 5 µM
CC(C)C[C@@H](NC(=O)[C@H](N)Cc1c[nH]c2ccccc12)C(=O)N[C@@H](C(=O)N[C@H](Cc1c[nH]c2ccccc12)C(=O)N[C@H](CCCCN)C(=O)N[C@H](Cc1c[nH]c2ccccc12)C(=O)N[C@H](CCCNC(=N)N)C(=O)N[C@H](CCCNC(=N)N)C(=O)N[C@H](CCCNC(=N)N)C(N)=O)C(C)C [KSH37, wlvwkwrrr] (H-[dW][dL][dV][dW][dK][dW][dR][dR][dR]-NH2; N-terminus assumed) | 5 (≈ 6.92 µg/mL) |  |  | 40 (≈ 55.4 µg/mL) | 
CC[C@@H](C)[C@@H](NC(=O)[C@H](N)Cc1c[nH]c2ccccc12)C(=O)N[C@@H](C(=O)N[C@H](Cc1c[nH]c2ccccc12)C(=O)N[C@@H](C(=O)N[C@H](Cc1c[nH]c2ccccc12)C(=O)N[C@H](CCCNC(=N)N)C(=O)N[C@H](CCCNC(=N)N)C(=O)N[C@H](CCCNC(=N)N)C(N)=O)[C@H](C)CC)[C@H](C)CC [KSH61, wiiwiwrrr] (H-[dW][dI][dI][dW][dI][dW][dR][dR][dR]-NH2; N-terminus assumed) | 0.63 (≈ 0.872 µg/mL) |  |  |  | 
CC[C@@H](C)[C@@H](NC(=O)[C@@H](Cc1c[nH]c2ccccc12)NC(=O)[C@@H](CC(C)C)NC(=O)[C@@H](CC(C)C)NC(=O)[C@H](N)Cc1c[nH]c2ccccc12)C(=O)NCC(=O)N[C@H](CC(C)C)C(=O)N[C@H](CCCNC(=N)N)C(=O)N[C@H](CCCCN)C(=O)N[C@H](CCCCN)C(N)=O [KSH8, wllwiglrkk] (H-[dW][dL][dL][dW][dI]G[dL][dR][dK][dK]-NH2; N-terminus assumed) |  |  |  | 40 (≈ 52.5 µg/mL) | 
CC[C@@H](C)[C@@H](NC(=O)[C@@H](Cc1c[nH]c2ccccc12)NC(=O)[C@@H](CC(C)C)NC(=O)[C@H](N)Cc1c[nH]c2ccccc12)C(=O)N[C@H](Cc1c[nH]c2ccccc12)C(=O)N[C@H](CCCNC(=N)N)C(=O)N[C@H](CCCNC(=N)N)C(=O)N[C@H](CCCNC(=N)N)C(N)=O [KSH41, wlwiwrrr] (H-[dW][dL][dW][dI][dW][dR][dR][dR]-NH2; N-terminus assumed) |  | 2.5 (≈ 3.18 µg/mL) |  |  | 
CC[C@@H](C)[C@@H](NC(=O)[C@@H](Cc1c[nH]c2ccccc12)NC(=O)[C@@H](CCCNC(=N)N)NC(=O)[C@@H](CCCNC(=N)N)NC(=O)[C@H](N)CCCNC(=N)N)C(=O)N[C@H](Cc1c[nH]c2ccccc12)C(=O)N[C@@H](C(=O)N[C@@H](C(=O)N[C@H](Cc1c[nH]c2ccccc12)C(N)=O)[C@H](C)CC)[C@H](C)CC [KSH60, rrrwiwiiw] (H-[dR][dR][dR][dW][dI][dW][dI][dI][dW]-NH2; N-terminus assumed) | 0.63 (≈ 0.872 µg/mL) |  |  |  | 
CC[C@H](C)[C@H](NC(=O)CN)C(=O)NCC(=O)N[C@@H](C)C(=O)N[C@H](C(=O)N[C@@H](CC(C)C)C(=O)N[C@@H](CCCCN)C(=O)N[C@H](C(=O)N[C@@H](CC(C)C)C(=O)N[C@H](C(=O)N[C@H](C(=O)NCC(=O)N[C@@H](CC(C)C)C(=O)N1CCC[C@H]1C(=O)N[C@@H](C)C(=O)N[C@@H](CC(C)C)C(=O)N[C@H](C(=O)N[C@@H](CO)C(=O)N[C@@H](Cc1c[nH]c2ccccc12)C(=O)N[C@H](C(=O)N[C@@H](CCCCN)C(=O)N[C@@H](CCCNC(=N)N)C(=O)N[C@@H](CCCCN)C(=O)N[C@@H](CCCNC(=N)N)C(=O)N[C@@H](CCC(N)=O)C(=O)N[C@@H](CCC(N)=O)C(N)=O)[C@@H](C)CC)[C@@H](C)CC)[C@@H](C)O)[C@@H](C)O)C(C)C)C(C)C [Melittin, reference compound] |  |  |  |  | MIC VRE (E. faecalis) ATCC 51575 [1, 5]: 1.25 µM (≈ 3.56 µg/mL); MIC MRAB (A. baumannii) ATCC BAA 1605 [3, 5]: 1.25 µM (≈ 3.56 µg/mL); MIC MRPA (P. aeruginosa) CCARM 2180 [4, 5]: >40 µM

Further lines, with some results ahead:

MIC VRE (E. faecalis) ATCC 51575 ([1]; ATCC 51575, 18 h) [µM] | MIC MRSA (S. aureus) KCCM 40510 ([2]; KCCM 40510, 18 h) [µM] | MIC MRAB (A. baumannii) ATCC BAA 1605 ([3]; ATCC BAA 1605, 18 h) [µM] | MIC MRPA (P. aeruginosa) CCARM 2180 ([4]; CCARM 2180, 18 h) [µM] | Compound | also measured
5 (≈ 8.75 µg/mL) | 5 (≈ 8.75 µg/mL) | >20 | >20 | CCCCCCCCCC(=O)NCCCC[C@@H](N)C(=O)N[C@H](Cc1c[nH]c2ccccc12)C(=O)N[C@H](CC(C)C)C(=O)N[C@H](CC(C)C)C(=O)N[C@H](Cc1c[nH]c2ccccc12)C(=O)N[C@@H](C(=O)NCC(=O)N[C@H](CC(C)C)C(=O)N[C@H](CCCNC(=N)N)C(=O)N[C@H](CCCCN)C(=O)N[C@H](CCCCN)C(=O)N[C@H](CCCNC(=N)N)C(N)=O)[C@H](C)CC [KSH10, kwllwiglrkkr] (H-[dK](Decanoyl)[dW][dL][dL][dW][dI]G[dL][dR][dK][dK][dR]-NH2; N-terminus assumed) | 
0.63 (≈ 0.792 µg/mL) | 1.25 (≈ 1.57 µg/mL) | 1.25 (≈ 1.57 µg/mL) | >10 | CC(C)[C@@H](NC(=O)[C@H](N)Cc1c[nH]c2ccccc12)C(=O)N[C@@H](C(=O)N[C@H](Cc1c[nH]c2ccccc12)C(=O)N[C@@H](C(=O)N[C@H](Cc1c[nH]c2ccccc12)C(=O)N[C@H](CCCCN)C(=O)N[C@H](CCCCN)C(=O)N[C@H](CCCCN)C(N)=O)C(C)C)C(C)C [KSH66, wvvwvwkkk] (H-[dW][dV][dV][dW][dV][dW][dK][dK][dK]-NH2; N-terminus assumed) | 
1.25 (≈ 1.69 µg/mL) | 1.25 (≈ 1.69 µg/mL) | 10 (≈ 13.5 µg/mL) | 10 (≈ 13.5 µg/mL) | CC(C)[C@@H](NC(=O)[C@@H](Cc1c[nH]c2ccccc12)NC(=O)[C@@H](CCCNC(=N)N)NC(=O)[C@@H](CCCNC(=N)N)NC(=O)[C@H](N)CCCNC(=N)N)C(=O)N[C@@H](C(=O)N[C@@H](C(=O)N[C@@H](C(=O)N[C@@H](C(=O)N[C@H](Cc1c[nH]c2ccccc12)C(N)=O)C(C)C)C(C)C)C(C)C)C(C)C [KSH86, rrrwvvvvvw] (H-[dR][dR][dR][dW][dV][dV][dV][dV][dV][dW]-NH2; N-terminus assumed) | 
20 | 20 | 5 | >40 | WVVWVVYRKKR-NH2 [LSH7] | 
0.63 (≈ 0.863 µg/mL) | 0.63 (≈ 0.863 µg/mL) | 0.63 (≈ 0.863 µg/mL) | 2.5 (≈ 3.42 µg/mL) | CC[C@@H](C)[C@@H](NC(=O)[C@@H](Cc1c[nH]c2ccccc12)NC(=O)[C@@H](CCCNC(=N)N)NC(=O)[C@H](N)CCCNC(=N)N)C(=O)N[C@H](Cc1c[nH]c2ccccc12)C(=O)N[C@@H](C(=O)N[C@H](CC(C)C)C(=O)N[C@H](Cc1c[nH]c2ccccc12)C(=O)N[C@H](CCCNC(=N)N)C(N)=O)C(C)C [KSH54, rrwiwvlwr] (H-[dR][dR][dW][dI][dW][dV][dL][dW][dR]-NH2; N-terminus assumed) | 
 |  |  | >40 | CC[C@@H](C)[C@@H](NC(=O)[C@@H](Cc1c[nH]c2ccccc12)NC(=O)[C@@H](CC(C)C)NC(=O)[C@H](N)CC(C)C)C(=O)N[C@H](C)C(=O)N[C@H](CC(C)C)C(=O)N[C@H](CCCCN)C(=O)N[C@H](CCCCN)C(=O)N[C@H](CCCCN)C(=O)N[C@H](CCCCN)C(N)=O [KSH12, llwialkkkk] (H-[dL][dL][dW][dI][dA][dL][dK][dK][dK][dK]-NH2; N-terminus assumed) | 
 |  |  | >40 | CC(C)C[C@@H](NC(=O)[C@H](N)Cc1c[nH]c2ccccc12)C(=O)N[C@@H](C(=O)N[C@H](Cc1c[nH]c2ccccc12)C(=O)N[C@H](CO)C(=O)N[C@H](Cc1c[nH]c2ccccc12)C(=O)N[C@H](CCCNC(=N)N)C(=O)N[C@H](CCCNC(=N)N)C(=O)N[C@H](CCCNC(=N)N)C(N)=O)C(C)C [KSH39, wlvwswrrr] (H-[dW][dL][dV][dW][dS][dW][dR][dR][dR]-NH2; N-terminus assumed) | 
40 (≈ 51.3 µg/mL) | 40 (≈ 51.3 µg/mL) |  | >40 | CC[C@@H](C)[C@@H](NC(=O)[C@@H](Cc1c[nH]c2ccccc12)NC(=O)[C@@H](CC(C)C)NC(=O)[C@H](N)CC(C)C)C(=O)NCC(=O)N[C@H](CC(C)C)C(=O)N[C@H](CCCNC(=N)N)C(=O)N[C@H](CCCCN)C(=O)N[C@H](CCCCN)C(=O)N[C@H](CCCNC(=N)N)C(N)=O [KSH13, llwiglrkkr] (H-[dL][dL][dW][dI]G[dL][dR][dK][dK][dR]-NH2; N-terminus assumed) | 
>40 | >40 |  | >40 | CC[C@@H](C)[C@@H](NC(=O)[C@@H](Cc1c[nH]c2ccccc12)NC(=O)[C@@H](C)NC(=O)[C@@H](C)NC(=O)[C@H](N)Cc1c[nH]c2ccccc12)C(=O)NCC(=O)N[C@H](CC(C)C)C(=O)N[C@H](CCCNC(=N)N)C(=O)N[C@H](CCCCN)C(=O)N[C@H](CCCCN)C(=O)N[C@H](CCCNC(=N)N)C(N)=O [KSH20, waawiglrkkr] (H-[dW][dA][dA][dW][dI]G[dL][dR][dK][dK][dR]-NH2; N-terminus assumed) | 
